Measurements from the OPERA property sets (Mansouri et al. 2018).

| SMILES | boiling point [°C] | log10 vapour pressure (mmHg) | melting point [°C] |
| --- | --- | --- | --- |
| FC(F)(Cl)C(F)(F)Cl | 3.8 | 3.3 | -94 |
| O=C1C=C2C(=CCOC2O)O1 (stereo unspecified) |  |  | 111 |
| C=CCS | 65 | 2.72 |  |
